From patent US20230290452A1, “Electronic Health Record (EHR)-Based Classifier for Acute Respiratory Distress Syndrome (ARDS) Subtyping” (Endpoint Health Inc., priority 2020, published 2023)

Columns and labels:
Format in all cases: in vivo, human
[1] = system: ARDS patients; assay: eICU (v1) dataset, statin intervention by Model C.4 subphenotype; set-up: Alive: unit not given here
[2] = system: ARDS patients; assay: as above; set-up: Alive: unit not given here; settings: for Mortality Rate: admitted with drug or initiated during ICU stay; for Alive / Dead / Mortality: no consideration to number doses and minimum dose size
From the text: The dataset from the eICU (v1) dataset was used for analysis. The intervention of interest was statins.
The individual statins were then examined with no consideration to number of doses and minimum dose size. Using this methodology, there were several differential responses identified (bolded and underlined cells as shown below in Table 81).

[3] = system: ARDS patients; assay: eICU data filtered for patients without prior indication for statin use, statin intervention by subphenotype
From the text: This included patients with history of angina, congestive heart failure, coronary artery bypass grafting, multiple coronary artery bypass, hypertension requiring treatment, previous acute myocardial infarction, peripheral vascular disease, previous coronary intervention procedure, stroke, and/or transient ischemic attack.

[4] = system: COVID-19 patients; assay: CoDEX study dataset, dexamethasone vs placebo by Model C.4 subphenotype
From the text: The dataset from the CoDEX study was used for analysis. The CoDEX study involved treating COVID-19 patients with dexamethasone. K-means clustering was applied using Model C.4 described above in Table 70 and patients were separated into two clusters assigned to Subphenotype A and Subphenotype B. Tables 75A and 75B show the corresponding results.

[5] = system: ARDS patients; assay: LASRS study dataset, methylprednisolone vs placebo by Model C.4 subphenotype; settings: for Dead 90: 1 0, Frequency: dead at 90 days; for Mortality: cohort receiving methylprednisolone
From the text: The dataset from the LASRS study was used for analysis. The LASRS study involved administration of corticosteroids, specifically methylprednisolone. K-means clustering was applied using Model C.4 described above in Table 70 and patients were separated into two subphenotypes based on the K-means cluster. Overall mortality was 40% in Subphenotype B and 28.57% in Subphenotype A (p = 0.3287). Within Subphenotype B, mortality rates were 40% regardless of whether the patient received methylprednisolone or a placebo; however, in Subphenotype A, mortality was 50% in the cohort receiving methylprednisolone, compared with 9.09% in the placebo cohort (p = 0.0382).

[6] = system: ARDS patients; assay: ARMA-KARMA-LARMA study dataset, lisofylline and ketoconazole vs placebo by subphenotype; settings: for Dead 90: 1 0, Percent: mortality; for Mortality: ARMA-KARMA-LARMA
From the text: The dataset from the ARMA-KARMA-LARMA study was used for analysis. Interventions in the study included lisofylline and ketoconazole.

[7] = admitted with drug or initiated during ICU stay, All Patients
[8] = admitted with drug or initiated during ICU stay, Subphenotype A
[9] = admitted with drug or initiated during ICU stay, Subphenotype B
[10] = initiated during ICU stay, All Patients
[11] = initiated during ICU stay, Subphenotype A
[12] = initiated during ICU stay, Subphenotype B
[13] = on drug at time of ICU admit, All Patients
[14] = on drug at time of ICU admit, Subphenotype A
[15] = on drug at time of ICU admit, Subphenotype B
[16] = Subphenotype A patients, not dead at 90 days
[17] = Subphenotype B patients, not dead at 90 days
[18] = active arm vs placebo, Subphenotype A patients
[19] = active arm vs placebo, Subphenotype B patients
[20] = Patients administered lisofylline (title), Subphenotype A
[21] = Patients administered lisofylline (title), Subphenotype B

CCC(C)(C)C(=O)O[C@H]1C[C@@H](C)C=C2C=C[C@H](C)[C@H](CC[C@@H]3C[C@@H](O)CC(=O)O3)[C@H]21 [simvastatin]
Alive [1, 7]: 176
Dead [1, 7]: 26
Alive [1, 8]: 126
Dead [1, 8]: 10
Mortality Rate [1, 8]: 7.35
Alive [1, 9]: 50
Dead [1, 9]: 16
Mortality Rate [1, 9]: 24.24
Alive [1, 10]: 89
Dead [1, 10]: 15
Mortality Rate [1, 10]: 14.42
Alive [1, 11]: 63
Dead [1, 11]: 6
Mortality Rate [1, 11]: 8.70
Alive [1, 12]: 26
Dead [1, 12]: 9
Mortality Rate [1, 12]: 25.71
Alive [1, 13]: 87
Dead [1, 13]: 11
Mortality Rate [1, 13]: 11.22
Alive [1, 14]: 63
Dead [1, 14]: 4
Mortality Rate [1, 14]: 5.97
Alive [1, 15]: 24
Dead [1, 15]: 7
Mortality Rate [1, 15]: 22.58
Mortality Rate ([2]; All Patients): 12.87
Alive ([2]; All Patients): 167
Dead ([2]; All Patients): 26
Mortality ([2]; All Patients): 13%
Alive ([2]; Subphenotype A): 122
Dead ([2]; Subphenotype A): 10
Mortality ([2]; Subphenotype A): 8%
Alive ([2]; Subphenotype B): 45
Dead ([2]; Subphenotype B): 16
Mortality ([2]; Subphenotype B): 26%
Alive [3, 7]: 23
Dead [3, 7]: 5
Mortality Rate [3, 7]: 17.86
Alive [3, 8]: 15
Dead [3, 8]: 1
Mortality Rate [3, 8]: 6.25
Alive [3, 9]: 8
Dead [3, 9]: 4
Mortality Rate [3, 9]: 33.33
Alive [3, 10]: 6
Dead [3, 10]: 4
Mortality Rate [3, 10]: 40
Alive [3, 11]: 5
Dead [3, 11]: 1
Mortality Rate [3, 11]: 16.67
Alive [3, 12]: 1
Dead [3, 12]: 3
Mortality Rate [3, 12]: 75
Alive [3, 13]: 17
Dead [3, 13]: 1
Mortality Rate [3, 13]: 5.56
Alive [3, 14]: 10
Dead [3, 14]: 0
Mortality Rate [3, 14]: 0
Alive [3, 15]: 7
Dead [3, 15]: 1
Mortality Rate [3, 15]: 12.5

CC[C@H](C)C(=O)O[C@H]1C[C@@H](C)C=C2C=C[C@H](C)[C@H](CC[C@@H]3C[C@@H](O)CC(=O)O3)[C@H]21 [Lovastatin]
Alive ([2]; All Patients): 12
Dead ([2]; All Patients): 1
Mortality ([2]; All Patients): 8%
Alive ([2]; Subphenotype A): 10
Dead ([2]; Subphenotype A): 0
Mortality ([2]; Subphenotype A): 0%
Alive ([2]; Subphenotype B): 2
Dead ([2]; Subphenotype B): 1
Mortality ([2]; Subphenotype B): 33%

C[C@@H]1C[C@H]2[C@@H]3CCC4=CC(=O)C=C[C@]4(C)[C@@]3(F)[C@@H](O)C[C@]2(C)[C@@]1(O)C(=O)CO [dexamethasone]
28-day Mortality ([4]; Subphenotype A): 54.72%
Increase in number of vent free days versus placebo ([4]; Subphenotype A): 45%
Vent Free Days ([4]; Subphenotype A): 8.81 days
28-day Mortality ([4]; Subphenotype B): 62.50%
Increase in number of ventilator free days versus placebo ([4]; Subphenotype B): 101%
Vent Free Days ([4]; Subphenotype B): 5.09 days

C[C@H]1C[C@@H]2[C@H]([C@@H](O)C[C@@]3(C)[C@H]2CC[C@]3(O)C(=O)CO)[C@@]2(C)C=CC(=O)C=C12 [methylprednisolone]
Dead 90: 1 0, Frequency ([5]; Subphenotype A patients): 5
Dead 90: 1 0, Row Percent ([5]; Subphenotype A patients, mortality): 50%
Dead 90: 0 0, Frequency [5, 16]: 5
Dead 90: 0 0, Row Percent [5, 16]: 50%
Mortality ([5]; Subphenotype A): 50%
Dead 90: 1 0, Frequency ([5]; Subphenotype B patients): 18
Dead 90: 1 0, Percent ([5]; Subphenotype B patients, mortality): 40%
Dead 90: 0 0, Frequency [5, 17]: 27
Dead 90: 0 0, Percent [5, 17]: 60%
Mortality ([5]; Subphenotype B): 40%
Dead 90: 0 0, Frequency [6, 18]: 24
Dead 90: 0 0, Percent [6, 18]: 68.57%
Dead 90: 1 0, Frequency [6, 18]: 11
Dead 90: 1 0, Percent [6, 18]: 31.43%
Dead 90: 0 0, Frequency [6, 19]: 15
Dead 90: 0 0, Percent [6, 19]: 60%
Dead 90: 1 0, Frequency [6, 19]: 10
Dead 90: 1 0, Percent [6, 19]: 40%

C[C@@H](O)CCCCn1c(=O)c2c(ncn2C)n(C)c1=O [lisofylline]
Mortality ([6]; Subphenotype A, patients who received lisofylline): 31.4%
Mortality ([6]; Subphenotype B, patients who got lisofylline): 40%
Dead 90: 0 0, Frequency [6, 20]: 36
Dead 90: 0 0, Percent [6, 20]: 72%
Dead 90: 1 0, Frequency [6, 20]: 14
Dead 90: 1 0, Percent [6, 20]: 28%
Dead 90: 0 0, Frequency [6, 21]: 51
Dead 90: 0 0, Percent [6, 21]: 72.86%
Dead 90: 1 0, Frequency [6, 21]: 19
Dead 90: 1 0, Percent [6, 21]: 27.14%

CC(C)c1c(C(=O)Nc2ccccc2)c(-c2ccccc2)c(-c2ccc(F)cc2)n1CC[C@@H](O)C[C@@H](O)CC(=O)O [atorvastatin]
Alive [1, 7]: 290
Dead [1, 7]: 54
Alive [1, 8]: 209
Dead [1, 8]: 26
Mortality Rate [1, 8]: 11.06
Alive [1, 9]: 81
Dead [1, 9]: 28
Mortality Rate [1, 9]: 25.69
Alive [1, 10]: 210
Dead [1, 10]: 40
Mortality Rate [1, 10]: 16
Alive [1, 11]: 149
Dead [1, 11]: 19
Mortality Rate [1, 11]: 11.31
Alive [1, 12]: 61
Dead [1, 12]: 21
Mortality Rate [1, 12]: 25.61
Alive [1, 13]: 80
Dead [1, 13]: 14
Mortality Rate [1, 13]: 14.89
Alive [1, 14]: 60
Dead [1, 14]: 7
Mortality Rate [1, 14]: 10.45
Alive [1, 15]: 20
Dead [1, 15]: 7
Mortality Rate [1, 15]: 25.93
Mortality Rate ([2]; All Patients): 15.70
Alive ([2]; All Patients): 289
Dead ([2]; All Patients): 54
Mortality ([2]; All Patients): 16%
Alive ([2]; Subphenotype A): 209
Dead ([2]; Subphenotype A): 26
Mortality ([2]; Subphenotype A): 11%
Alive ([2]; Subphenotype B): 80
Dead ([2]; Subphenotype B): 28
Mortality ([2]; Subphenotype B): 26%
Alive [3, 7]: 51
Dead [3, 7]: 12
Mortality Rate [3, 7]: 19.05
Alive [3, 8]: 40
Dead [3, 8]: 6
Mortality Rate [3, 8]: 13.04
Alive [3, 9]: 11
Dead [3, 9]: 6
Mortality Rate [3, 9]: 35.29
Alive [3, 10]: 42
Dead [3, 10]: 9
Mortality Rate [3, 10]: 17.65
Alive [3, 11]: 34
Dead [3, 11]: 5
Mortality Rate [3, 11]: 12.82
Alive [3, 12]: 8
Dead [3, 12]: 4
Mortality Rate [3, 12]: 33.33
Alive [3, 13]: 9
Dead [3, 13]: 3
Mortality Rate [3, 13]: 25
Alive [3, 14]: 6
Dead [3, 14]: 1
Mortality Rate [3, 14]: 14.29
Alive [3, 15]: 3
Dead [3, 15]: 2
Mortality Rate [3, 15]: 40

CC(C)c1nc(N(C)S(C)(=O)=O)nc(-c2ccc(F)cc2)c1/C=C/[C@@H](O)C[C@@H](O)CC(=O)O [Rosuvastatin]
Alive ([2]; All Patients): 32
Dead ([2]; All Patients): 4
Mortality ([2]; All Patients): 11%
Alive ([2]; Subphenotype A): 23
Dead ([2]; Subphenotype A): 2
Mortality ([2]; Subphenotype A): 8%
Alive ([2]; Subphenotype B): 9
Dead ([2]; Subphenotype B): 2
Mortality ([2]; Subphenotype B): 18%

CC[C@H](C)C(=O)O[C@H]1C[C@H](O)C=C2C=C[C@H](C)[C@H](CC[C@@H](O)C[C@@H](O)CC(=O)O)[C@H]21 [Pravastatin]
Alive ([2]; All Patients): 29
Dead ([2]; All Patients): 6
Mortality ([2]; All Patients): 17%
Alive ([2]; Subphenotype A): 20
Dead ([2]; Subphenotype A): 4
Mortality ([2]; Subphenotype A): 17%
Alive ([2]; Subphenotype B): 9
Dead ([2]; Subphenotype B): 2
Mortality ([2]; Subphenotype B): 18%
